Experimental data: patent publication US20060035820A1, “New derivatives of echinocandine, their preparation process and their use as antifungals” (AVENTIS PHARMA S.A., priority 1999, published 2006)

Target: T1, Glucan Synthase of Candida albicans (Candida albicans, UniProt O13428)
T1 construct: endogenous in cells; host or cells: Candida albicans membrane preparation (method of Tang et al. 1991)
Test: Inhibition of the Glucan Synthase of Candida albicans
Assay type: biochemical
Settings: Candida albicans membranes, 14C-UDP glucose, 25° C. for 1 hour
Procedure: A—Inhibition of the Glucan Synthase of Candida albicans.
Candida albicans membranes were purified according to the process described by Tang et al Antimicrob. Agents Chemother 35, 99-103, 1991. 22.5 μg of membrane proteins are incubated in a mixture of 2 Mm of 14C-UDP glucose (specific activity=0.34 mCi./mmol, 50 μg of α-amylase, 1 Mm of dithiotreitol (DTT), 1 Mm EDTA, 100 Mm NaF, 7 μM of GTP-γ-S, 1M of sucrose and 50 Mm of Tris-HCL (pH 7.8) in a volume of 100 μl. The medium is incubated at 25° C. for 1 hour and the reaction is terminated by adding TCA at a final concentration of 5%. The reaction mixture is transferred onto a pre-humidified glass fibre filter. The filter is washed, dried and its radioactivity is counted. Mulundocandine is used as a positive control. Control of the vehicle is carried out with the same quantity of 1% DMSO.

T1 sequence (O13428 1-1897): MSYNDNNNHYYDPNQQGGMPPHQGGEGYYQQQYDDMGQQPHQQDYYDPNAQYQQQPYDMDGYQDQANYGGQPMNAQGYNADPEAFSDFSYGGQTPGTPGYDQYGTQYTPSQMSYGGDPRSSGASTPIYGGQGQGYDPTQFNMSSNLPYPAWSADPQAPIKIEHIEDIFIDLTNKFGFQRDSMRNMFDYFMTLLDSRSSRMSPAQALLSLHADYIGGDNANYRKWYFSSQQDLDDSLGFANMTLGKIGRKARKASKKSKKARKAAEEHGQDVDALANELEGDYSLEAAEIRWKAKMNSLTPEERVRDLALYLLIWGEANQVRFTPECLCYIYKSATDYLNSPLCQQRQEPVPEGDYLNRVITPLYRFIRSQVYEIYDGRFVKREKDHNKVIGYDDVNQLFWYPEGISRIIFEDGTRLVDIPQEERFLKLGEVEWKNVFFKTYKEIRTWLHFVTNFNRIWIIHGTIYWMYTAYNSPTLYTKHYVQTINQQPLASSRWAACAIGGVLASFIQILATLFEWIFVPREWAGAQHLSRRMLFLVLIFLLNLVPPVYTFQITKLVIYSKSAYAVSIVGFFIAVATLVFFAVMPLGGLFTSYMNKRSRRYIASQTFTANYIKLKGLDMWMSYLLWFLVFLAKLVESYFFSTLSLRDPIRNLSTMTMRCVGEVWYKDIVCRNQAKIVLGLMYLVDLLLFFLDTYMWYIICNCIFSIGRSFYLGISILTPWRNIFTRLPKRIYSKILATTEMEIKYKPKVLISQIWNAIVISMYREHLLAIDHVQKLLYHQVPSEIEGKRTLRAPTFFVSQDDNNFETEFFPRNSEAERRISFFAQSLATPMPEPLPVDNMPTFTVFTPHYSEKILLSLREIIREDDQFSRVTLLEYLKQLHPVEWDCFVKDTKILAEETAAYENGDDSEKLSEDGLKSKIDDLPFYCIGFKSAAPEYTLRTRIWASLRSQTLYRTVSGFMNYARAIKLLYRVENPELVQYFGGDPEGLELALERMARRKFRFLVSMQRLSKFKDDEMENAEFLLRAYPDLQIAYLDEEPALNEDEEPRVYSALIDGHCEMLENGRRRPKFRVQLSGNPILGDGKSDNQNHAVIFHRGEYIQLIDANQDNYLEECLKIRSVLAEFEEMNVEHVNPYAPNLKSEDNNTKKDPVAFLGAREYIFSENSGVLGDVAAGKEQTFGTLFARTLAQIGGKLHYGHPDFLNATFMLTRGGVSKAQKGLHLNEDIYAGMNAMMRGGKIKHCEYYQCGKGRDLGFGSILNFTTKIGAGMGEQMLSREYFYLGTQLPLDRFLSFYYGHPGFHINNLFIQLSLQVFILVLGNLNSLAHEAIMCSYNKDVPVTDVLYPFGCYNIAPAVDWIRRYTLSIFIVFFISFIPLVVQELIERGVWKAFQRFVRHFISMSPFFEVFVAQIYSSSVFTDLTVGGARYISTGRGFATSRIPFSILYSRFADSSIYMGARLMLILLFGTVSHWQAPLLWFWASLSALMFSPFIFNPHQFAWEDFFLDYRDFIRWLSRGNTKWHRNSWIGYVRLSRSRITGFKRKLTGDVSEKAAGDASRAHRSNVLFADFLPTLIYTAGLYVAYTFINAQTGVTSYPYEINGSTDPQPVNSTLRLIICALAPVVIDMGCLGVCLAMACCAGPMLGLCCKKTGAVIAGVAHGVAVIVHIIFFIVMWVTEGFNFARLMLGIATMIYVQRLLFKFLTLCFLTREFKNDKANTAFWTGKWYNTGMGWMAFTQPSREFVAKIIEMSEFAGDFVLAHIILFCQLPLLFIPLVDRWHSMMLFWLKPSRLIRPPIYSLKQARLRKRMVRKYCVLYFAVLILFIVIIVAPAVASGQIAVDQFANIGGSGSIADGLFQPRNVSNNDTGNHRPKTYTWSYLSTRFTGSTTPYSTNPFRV
T1 sequence (O42825 1-195 partner limits assumed): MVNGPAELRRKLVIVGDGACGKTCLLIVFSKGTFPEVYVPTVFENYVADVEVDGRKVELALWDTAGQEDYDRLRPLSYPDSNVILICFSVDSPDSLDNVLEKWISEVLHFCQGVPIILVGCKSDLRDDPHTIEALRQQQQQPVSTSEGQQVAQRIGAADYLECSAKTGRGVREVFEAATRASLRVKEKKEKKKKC

Trans 1-[4-[(2-aminocyclo-hexyl)-amino]-N2-[[4″-(pentyloxy)[1,1′:4′,1″-terphenyl]-4-yl)]-carbonyl]-L-ornithine]-4-[4-(4-hydroxyphenyl)-L-threonine]-5-L-serine-echinocandin B trifluoroacetate (isomer A). [Example 3 isomer A]
Inhibition of the glucan synthase of Candida albicans (activity in words): good activity
